Test results taken from ChEMBL document CHEMBL3886569, “Substituted isoquinolines as CRTH2 receptor modulators” (2016).

Each compound was assayed against T1, Prostaglandin D2 receptor 2 (Homo sapiens, UniProt Q9Y5Y4) (assay: Radioligand Binding Assay: Radioligand binding was performed using filtration or scintillation proximity assay (SPA) technology. SPA assays were done at room temperature in 10 mM HEPES pH 7.4, 1 mM EDTA containing 2 mM MnCl2 and 16 nM [3H]-PGD2 (PerkinElmer, Waltham, Mass.) (164 Ci mmol-1), in a final volume of 0.05 mL. Competing ligands were diluted in dimethylsulfoxide and added using very low volumes (500 nL). The reaction was initiated by the addition of a mixture of 3.52 ug of membrane protein prepared from a human embryonic kidney (HEK)-hCRTH2 cell line adhered to 140 ug of wheatgerm agglutinin SPA beads (PerkinElmer). Total and non-specific binding were determined in the absence and the presence of a CRTH2 antagonist, respectively. The reaction was routinely conducted for 60 minutes at room temperature followed by centrifugation for 5 minutes at 1000 RPM. The radioactivity was measured with a TopCountNXT (PerkinElmer). Filtration binding assays were done in a similar way with minor differences. The assay volume was 0.20 mL and competing ligands in dimethylsulfoxide were added in 2 uL. [3H]-PGD2 was used at 0.6 nM, and reactions were initiated by the addition of 10 ug of membrane protein. Reactions were terminated by filtration through GF/C filter plates (PerkinElmer) presoaked in 10 mM HEPES. After washing with buffer, plates were dried in a 50° C. oven for 1 h, scintillation cocktail was added and radioactivity was measured. Results determined using the SPA-based assay were similar to those from the filtration binding assay.).
T1 sequence (Q9Y5Y4 whole entry): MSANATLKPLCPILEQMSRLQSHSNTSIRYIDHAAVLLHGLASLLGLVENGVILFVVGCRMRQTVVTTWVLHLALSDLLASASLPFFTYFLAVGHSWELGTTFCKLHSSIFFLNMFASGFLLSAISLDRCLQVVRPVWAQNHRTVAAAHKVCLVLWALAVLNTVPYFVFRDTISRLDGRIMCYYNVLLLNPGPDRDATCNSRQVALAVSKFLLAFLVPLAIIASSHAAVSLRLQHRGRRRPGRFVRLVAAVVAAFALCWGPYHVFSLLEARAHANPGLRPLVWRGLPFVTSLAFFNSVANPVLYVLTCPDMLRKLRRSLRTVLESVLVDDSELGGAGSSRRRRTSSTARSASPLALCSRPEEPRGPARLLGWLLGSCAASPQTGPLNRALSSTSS

Row | Compound | Ki [nM]
1 | O=C(O)CCCCc1cc2cc(-c3noc(C4Cc5ccccc5C4)n3)ccc2c(=O)n1-c1ccc(F)cc1 | 21.5
2 | CC1(c2nc3ccc(F)cc3o2)CC(c2ccc3c(=O)n(-c4ccc(F)cc4)c(CCCCC(=O)O)cc3c2)=NO1 (stereo not given) | 25.4
3 | CC1(c2nc3ccc(F)cc3o2)CC(c2ccc3c(=O)n(-c4ccc(F)cc4)c(CCCCC(=O)O)c(Cl)c3c2)=NO1 (stereo not given) | 79.1

The next compounds have a lower Ki than those just listed; values first:

Row | Ki [nM] | Compound
4 | 10.9 | O=C(CCCCc1cc2cc(C(=O)N[C@@H]3CCCc4cc(F)ccc43)ccc2c(=O)n1-c1ccc(F)cc1)NS(=O)(=O)C1CC1
5 | 7.79 | O=C(O)CCCCc1cc2cc(-c3noc(Cc4ccc(F)cc4)n3)ccc2c(=O)n1-c1ccc(F)cc1
